Legend:
Assay type in all cases: cell-based
Candida albicans = assay: standard paper-disc inhibition test, zone of inhibition, Candida albicans; conditions: in vitro
From the text: (§1) The zones of inhibition, as determined in these tests, are shown below: […]

Neurospora crassa = assay: standard paper-disc inhibition test, zone of inhibition, Neurospora crassa; conditions: in vitro
From the text: as §1

[1] = tested on: certain pathogenic organisms, particularly gram positive bacteria, fungi, and yeasts; assay: in vitro standard paper-disc inhibition tests (summary statement)
From the text: as §1

Micrococcus luteus = assay: standard paper-disc inhibition test, zone of inhibition, Micrococcus luteus; conditions: in vitro
From the text: as §1

[2] = tested on: Saccharomyces pastorianus; assay: standard paper-disc inhibition test, zone of inhibition, Saccharomyces pastorianus; conditions: in vitro
From the text: as §1

Bacillus subtilis = assay: standard paper-disc inhibition test, zone of inhibition, Bacillus subtilis; conditions: in vitro
From the text: as §1

Staphylococcus aureus = assay: standard paper-disc inhibition test, zone of inhibition, Staphylococcus aureus; conditions: in vitro
From the text: as §1

[3] = Bacillus subtilis in minimal medium

| Compound | Zone Diameter (Candida albicans) | Zone Diameter (Neurospora crassa) | growth inhibition of certain pathogenic organisms [1] | Zone Diameter (Micrococcus luteus) | Zone Diameter [2] | Zone Diameter (Bacillus subtilis; [3]) | Zone Diameter (Bacillus subtilis; Bacillus subtilis) | Zone Diameter (Staphylococcus aureus) |
| --- | --- | --- | --- | --- | --- | --- | --- | --- |
| CC(=O)NC1C(OC2OC(CC(O)C3OC(n4ccc(=O)[nH]c4=O)C(O)C3O)C(O)C(O)C2NC(=O)/C=C/CCCCCCCCC(C)C)OC(CO)C(O)C1O (stereo not drawn) [Tunicamycin C] | 14 mm | 10 mm | inhibit the growth | tr (trace (6.5-9 mm)) | 16 mm | 36 mm | 28 mm | – |
| CC(=O)NC1C(OC2OC(CC(O)C3OC(n4ccc(=O)[nH]c4=O)C(O)C3O)C(O)C(O)C2NC(=O)/C=C/CCCCCCCCCCC(C)C)OC(CO)C(O)C1O (stereo not drawn) [Tunicamycin B] | 12 mm | 10 mm | inhibit the growth | 10 mm | 23 mm | 29 mm | 19 mm | tr (trace (6.5-9 mm)) |
| CC(=O)NC1C(OC2OC(CC(O)C3OC(n4ccc(=O)[nH]c4=O)C(O)C3O)C(O)C(O)C2NC(=O)/C=C/CCCCCCCCCCCC(C)C)OC(CO)C(O)C1O (stereo not drawn) [Tunicamycin D] | 11 mm | tr (trace (6.5-9 mm)) | inhibit the growth | tr (trace (6.5-9 mm)) | 13 mm | 27 mm | 19 mm | tr (trace (6.5-9 mm)) |
| CC(=O)NC1C(OC2OC(CC(O)C3OC(n4ccc(=O)[nH]c4=O)C(O)C3O)C(O)C(O)C2NC(=O)/C=C/CCCCCCCCCC(C)C)OC(CO)C(O)C1O (stereo not drawn) [Tunicamycin A] | 15 mm | 10 mm | inhibit the growth | – | 18 mm | 35 mm | 25 mm | tr (trace (6.5-9 mm)) |

— patent US4237225A, “Process for preparing tunicamycin” (priority 1978, dated 1980)
